Laboratory results taken from ChEMBL document CHEMBL3351341, “Discovery of a potent and selective EGFR inhibitor (AZD9291) of both sensitizing and T790M resistance mutations that spares the wild type form of the receptor” (J Med Chem, 2014).
Converted amounts (≈) assume the structure as drawn.

Key:
Plasma [1] = test: Drug metabolism in mouse plasma treated with N-[2-(2-Dimethylaminoethylmethylamino)-4-methoxy-5-[[4-(1-methylindol-3-yl)pyrimidin-2-yl]amino]phenyl]prop-2-enamide; assay type: ADME, cell-free
[2] = Lipophilicity, log D of the compound at pH 7.4; assay type: physicochemical; conditions: buffer
[3] = Thermodynamic solubility of the compound at pH 7.4; assay type: physicochemical; conditions: buffer, read-out: Therm_solubility
[4] = target: Voltage-gated inwardly rectifying potassium channel KCNH2 (Homo sapiens, UniProt Q12809); test: Inhibition of human ERG
Voltage-gated inwardly rectifying potassium channel KCNH2, sequence (Q12809 whole entry): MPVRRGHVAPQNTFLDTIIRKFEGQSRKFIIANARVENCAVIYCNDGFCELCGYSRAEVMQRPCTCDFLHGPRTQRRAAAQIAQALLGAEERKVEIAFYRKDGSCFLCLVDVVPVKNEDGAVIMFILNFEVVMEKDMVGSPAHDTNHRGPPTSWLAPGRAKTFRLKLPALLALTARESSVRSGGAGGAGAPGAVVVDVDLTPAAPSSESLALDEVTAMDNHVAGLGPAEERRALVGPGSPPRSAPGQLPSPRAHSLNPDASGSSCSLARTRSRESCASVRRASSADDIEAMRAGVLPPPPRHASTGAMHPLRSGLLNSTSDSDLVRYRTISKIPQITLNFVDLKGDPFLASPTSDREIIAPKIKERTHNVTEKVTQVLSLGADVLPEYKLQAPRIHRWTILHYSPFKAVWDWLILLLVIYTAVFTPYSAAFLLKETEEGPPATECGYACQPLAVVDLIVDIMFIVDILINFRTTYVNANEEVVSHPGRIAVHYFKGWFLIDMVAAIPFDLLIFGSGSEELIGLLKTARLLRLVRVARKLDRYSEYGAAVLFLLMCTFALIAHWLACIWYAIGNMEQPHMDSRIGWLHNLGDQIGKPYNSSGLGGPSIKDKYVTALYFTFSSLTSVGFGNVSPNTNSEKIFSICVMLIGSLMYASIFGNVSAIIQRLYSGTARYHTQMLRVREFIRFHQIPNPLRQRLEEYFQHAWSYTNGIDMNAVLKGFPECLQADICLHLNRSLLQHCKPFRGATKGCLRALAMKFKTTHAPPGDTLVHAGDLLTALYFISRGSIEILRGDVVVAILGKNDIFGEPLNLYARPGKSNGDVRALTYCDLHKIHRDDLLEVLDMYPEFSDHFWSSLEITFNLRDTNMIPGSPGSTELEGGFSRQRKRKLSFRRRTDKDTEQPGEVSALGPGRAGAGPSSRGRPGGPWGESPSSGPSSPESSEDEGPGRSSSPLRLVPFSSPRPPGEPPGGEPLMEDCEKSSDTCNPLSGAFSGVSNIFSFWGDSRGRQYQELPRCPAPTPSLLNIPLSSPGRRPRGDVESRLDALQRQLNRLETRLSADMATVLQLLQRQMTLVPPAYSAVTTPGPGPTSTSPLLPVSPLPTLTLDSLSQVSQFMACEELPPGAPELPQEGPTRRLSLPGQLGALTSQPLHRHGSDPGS

[5] = target: T1, Insulin-like growth factor 1 receptor (Homo sapiens, UniProt P08069); test: Inhibition of IGF1R (unknown origin)
T1 sequence (P08069 31-736 limits assumed): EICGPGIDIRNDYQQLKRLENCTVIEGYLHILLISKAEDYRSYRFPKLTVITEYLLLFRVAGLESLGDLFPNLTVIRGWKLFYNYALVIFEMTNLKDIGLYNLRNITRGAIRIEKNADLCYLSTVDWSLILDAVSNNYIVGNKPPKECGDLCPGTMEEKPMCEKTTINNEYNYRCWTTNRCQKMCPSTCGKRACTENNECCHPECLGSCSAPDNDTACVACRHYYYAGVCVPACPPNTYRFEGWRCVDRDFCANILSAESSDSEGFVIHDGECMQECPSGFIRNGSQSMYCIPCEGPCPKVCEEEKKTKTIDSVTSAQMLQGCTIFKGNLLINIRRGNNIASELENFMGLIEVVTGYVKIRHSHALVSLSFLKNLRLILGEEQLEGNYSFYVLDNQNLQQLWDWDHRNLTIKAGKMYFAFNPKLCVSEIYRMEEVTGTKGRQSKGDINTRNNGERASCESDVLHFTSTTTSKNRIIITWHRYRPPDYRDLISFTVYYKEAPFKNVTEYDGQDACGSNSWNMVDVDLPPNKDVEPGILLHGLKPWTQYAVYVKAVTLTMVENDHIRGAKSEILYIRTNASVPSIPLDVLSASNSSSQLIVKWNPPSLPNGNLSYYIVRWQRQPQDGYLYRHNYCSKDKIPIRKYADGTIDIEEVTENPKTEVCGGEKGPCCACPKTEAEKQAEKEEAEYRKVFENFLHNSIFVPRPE
T1 sequence (P08069 741-1367 limits assumed): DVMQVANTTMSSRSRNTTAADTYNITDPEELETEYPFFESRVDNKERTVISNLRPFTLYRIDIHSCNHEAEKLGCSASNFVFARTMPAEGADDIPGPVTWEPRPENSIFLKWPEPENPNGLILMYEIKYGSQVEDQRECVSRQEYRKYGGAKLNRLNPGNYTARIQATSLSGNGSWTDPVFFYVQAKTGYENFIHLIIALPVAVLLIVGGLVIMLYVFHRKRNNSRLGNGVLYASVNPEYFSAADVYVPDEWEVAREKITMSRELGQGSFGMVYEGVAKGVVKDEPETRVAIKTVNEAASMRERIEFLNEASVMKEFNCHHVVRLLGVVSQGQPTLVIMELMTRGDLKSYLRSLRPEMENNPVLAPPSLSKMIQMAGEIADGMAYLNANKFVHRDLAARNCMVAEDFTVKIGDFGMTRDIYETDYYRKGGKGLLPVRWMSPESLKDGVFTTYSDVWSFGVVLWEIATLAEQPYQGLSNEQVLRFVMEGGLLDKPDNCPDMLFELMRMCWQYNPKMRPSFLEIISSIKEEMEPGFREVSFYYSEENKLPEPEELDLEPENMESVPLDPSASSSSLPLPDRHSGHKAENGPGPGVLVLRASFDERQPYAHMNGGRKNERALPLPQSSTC

NCI-H1975 [6] = test: Cytotoxicity against human NCI-H1975 cells harboring EGFR L858R/[…] double mutant assessed as growth inhibition after 72 hrs by SYTOX green nucleic acid staining-based fluorescence assay; assay type: functional
[7] = Cytotoxicity against human PC9 cells harboring EGFR exon 19 deletion activating mutant assessed as growth inhibition after 72 hrs by SYTOX green nucleic acid staining-based fluorescence assay; assay type: functional, PC-9
[8] = Cytotoxicity against human Calu3 cells assessed as growth inhibition after 72 hrs by SYTOX green nucleic acid staining-based fluorescence assay; assay type: functional, Calu-3
[9] = (§1) Unbound fraction in human plasma; assay type: ADME, cell-free
[10] = Unbound fraction in nude mouse plasma; assay type: ADME, cell-free
[11] = Intrinsic clearance in rat hepatocytes measured per 10^6 cells; assay type: ADME, cell-based, Hepatocyte; conditions: read-out: CLH
[12] = Intrinsic clearance in human hepatocytes measured per 10^6 cells; assay type: ADME, cell-based, Hepatocyte; conditions: read-out: CLH
[13] = Fraction unbound in Han Wistar rat plasma; assay type: ADME, cell-free
Plasma [14] = test: Drug metabolism in rat plasma treated with N-[2-(2-Dimethylaminoethylmethylamino)-4-methoxy-5-[[4-(1-methylindol-3-yl)pyrimidin-2-yl]amino]phenyl]prop-2-enamide; assay type: ADME, cell-free
NCI-H1975 [15] = test: Antitumor activity against human NCI-H1975 cells harboring EGFR L858R/[…] double mutant xenografted in SCID mouse assessed as tumor growth inhibition at […], po qd for 7 days relative to control; assay type: functional
A-431 [16] = test: Antitumor activity against human A431 cells xenografted in SCID mouse assessed as tumor growth inhibition at […], po qd for 7 days relative to control; assay type: functional
Plasma [17] = test: as §1; assay type: ADME, cell-free
[18] = Half life of the compound by GSH reduction assay; assay type: physicochemical; conditions: glutathione (GSH)
[19] = Cmax in mouse at 10 mg/kg, po; assay type: ADME, organism-based; set-up: dose 10 mg/kg, route oral; conditions: in vivo
NCI-H1975 [20] = test: Antitumor activity against human NCI-H1975 cells harboring EGFR L858R/[…] double mutant xenografted in SCID mouse assessed as tumor growth inhibition at 10 mg/kg/day, po qd for 7 days relative to control; assay type: functional; conditions: for inhibition in vivo at 10 mg/kg/day: Mus musculus, NCI-H1975, 168 h, read-out: TGI
[21] = Antitumor activity against human PC9 cells harboring EGFR exon 19 deletion activating mutant xenografted in SCID mouse assessed as tumor growth inhibition at 10 mg/kg/day, po qd for 7 days relative to control; assay type: functional, PC-9
A-431 [22] = test: Antitumor activity against human A431 cells xenografted in SCID mouse assessed as tumor growth inhibition at 10 mg/kg/day, po qd for 7 days relative to control; assay type: functional; conditions: for inhibition in vivo at 10 mg/kg/day: Mus musculus, A-431, 168 h, read-out: TGI
Rattus norvegicus [23] = test: Clearance in iv dosed Han Wistar rat; assay type: ADME, organism-based; conditions: in vivo
[24] = Oral bioavailability in Han Wistar rat at 5 mg/kg; assay type: ADME, organism-based; conditions: in vivo
NCI-H1975 [25] = test: Antitumor activity against human NCI-H1975 cells harboring EGFR L858R/[…] double mutant xenografted in SCID mouse assessed as tumor growth inhibition at 5 mg/kg/day, po qd for 7 days relative to control; assay type: functional
A-431 [26] = test: Antitumor activity against human A431 cells xenografted in SCID mouse assessed as tumor growth inhibition at 5 mg/kg/day, po qd for 7 days relative to control; assay type: functional
Insulin receptor [27] = target: T2, Insulin receptor (Homo sapiens, UniProt P06213); test: Inhibition of INSR (unknown origin)
T2 sequence (P06213 28-758 limits assumed): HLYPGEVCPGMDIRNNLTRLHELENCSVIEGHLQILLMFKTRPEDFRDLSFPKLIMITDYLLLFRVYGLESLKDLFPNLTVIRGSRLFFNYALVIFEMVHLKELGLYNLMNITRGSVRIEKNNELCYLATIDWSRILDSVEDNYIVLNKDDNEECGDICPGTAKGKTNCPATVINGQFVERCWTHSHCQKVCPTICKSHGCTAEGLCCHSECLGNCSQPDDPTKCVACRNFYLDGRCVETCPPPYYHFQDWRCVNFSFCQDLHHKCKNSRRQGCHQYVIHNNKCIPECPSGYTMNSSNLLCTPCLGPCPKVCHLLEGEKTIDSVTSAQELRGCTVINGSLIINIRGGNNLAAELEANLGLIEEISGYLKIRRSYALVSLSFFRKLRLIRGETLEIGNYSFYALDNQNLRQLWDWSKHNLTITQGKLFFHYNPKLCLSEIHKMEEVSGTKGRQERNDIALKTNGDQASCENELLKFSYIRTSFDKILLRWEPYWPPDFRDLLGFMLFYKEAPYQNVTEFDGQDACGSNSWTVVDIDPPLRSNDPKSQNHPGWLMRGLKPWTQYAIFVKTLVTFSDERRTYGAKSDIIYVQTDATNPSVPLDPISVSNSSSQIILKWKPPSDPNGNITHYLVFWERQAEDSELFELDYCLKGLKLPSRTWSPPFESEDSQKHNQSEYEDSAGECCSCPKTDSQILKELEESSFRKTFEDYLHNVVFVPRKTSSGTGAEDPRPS
T2 sequence (P06213 763-1382 limits assumed): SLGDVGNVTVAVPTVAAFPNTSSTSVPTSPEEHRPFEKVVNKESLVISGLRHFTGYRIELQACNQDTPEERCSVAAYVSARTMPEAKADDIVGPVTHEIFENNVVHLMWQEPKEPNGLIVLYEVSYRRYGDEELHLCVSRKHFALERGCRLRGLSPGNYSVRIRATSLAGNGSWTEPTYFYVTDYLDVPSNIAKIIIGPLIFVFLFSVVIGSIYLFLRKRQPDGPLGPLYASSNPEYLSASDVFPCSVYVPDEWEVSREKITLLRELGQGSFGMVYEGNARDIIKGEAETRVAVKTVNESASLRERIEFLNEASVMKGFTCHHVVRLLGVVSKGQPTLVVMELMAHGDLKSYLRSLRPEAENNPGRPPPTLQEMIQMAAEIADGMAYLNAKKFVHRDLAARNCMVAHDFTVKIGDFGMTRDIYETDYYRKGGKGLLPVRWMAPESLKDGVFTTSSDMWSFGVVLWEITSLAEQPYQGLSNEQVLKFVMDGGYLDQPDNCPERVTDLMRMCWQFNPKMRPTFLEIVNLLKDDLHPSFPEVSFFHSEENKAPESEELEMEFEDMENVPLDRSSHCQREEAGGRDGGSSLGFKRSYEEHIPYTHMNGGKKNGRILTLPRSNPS

Rattus norvegicus [28] = test: Toxicity in rat at 200 mg/kg, po as single dose measured over 24 hrs; assay type: organism-based; set-up: dose 200 mg/kg, route oral; conditions: in vivo
Rattus norvegicus [29] = test: Toxicity in rat assessed as hyperglycemia at 200 mg/kg, po as single dose measured over 24 hrs; assay type: organism-based; set-up: dose 200 mg/kg, route oral; conditions: in vivo
Cavia porcellus = test: Cardiotoxicity in anesthetized guinea pig assessed as QT prolongation at fCmax concentration; assay type: toxicity, organism-based; conditions: in vivo
Plasma [30] = test: Drug metabolism in rat plasma assessed as loss of indole N-methyl group; assay type: ADME, cell-free
Plasma [31] = test: Drug metabolism in mouse plasma assessed as loss of indole N-methyl group; assay type: ADME, cell-free
Plasma [32] = test: Drug metabolism in rat plasma assessed as dealkylation of compound; assay type: ADME, cell-free
Plasma [33] = test: Drug metabolism in mouse plasma assessed as dealkylation of compound; assay type: ADME, cell-free
[34] = target: T1, Insulin-like growth factor 1 receptor; test: Inhibition of IGF1R (unknown origin) at 1 uM relative to control
Insulin receptor [35] = target: T2, Insulin receptor; test: Inhibition of INSR (unknown origin) at 1 uM relative to control
Mus musculus [36] = test: Inhibition of EGFR exon 19 deletion activating mutant phosphorylation in human PC9 cells xenografted in SCID mouse at 10 mg/kg, po measured 1 hr post dose; assay type: functional; conditions: PC-9, 1 h
Mus musculus [37] = test: Inhibition of EGFR exon 19 deletion activating mutant phosphorylation in human PC9 cells xenografted in SCID mouse at 10 mg/kg, po measured 6 hrs post dose; assay type: functional; conditions: PC-9, 6 h
Mus musculus [38] = test: Inhibition of EGFR exon 19 deletion activating mutant phosphorylation in human PC9 cells xenografted in SCID mouse at 10 mg/kg, po measured 16 hrs post dose; assay type: functional; conditions: PC-9, 16 h
Mus musculus [39] = test: Inhibition of EGFR exon 19 deletion activating mutant phosphorylation in human PC9 cells xenografted in SCID mouse at 10 mg/kg, po measured 24 hrs post dose; assay type: functional; conditions: PC-9, 24 h
Mus musculus [40] = test: Inhibition of EGFR exon 19 deletion activating mutant phosphorylation in human PC9 cells xenografted in SCID mouse at 10 mg/kg, po measured 30 hrs post dose; assay type: functional; conditions: PC-9, 30 h
Mus musculus [41] = test: Inhibition of EGFR L858R/[…] double mutant phosphorylation in human NCI-H1975 cells xenografted in SCID mouse at 10 mg/kg, po measured 1 hr post dose; assay type: functional; conditions: NCI-H1975, 1 h
Mus musculus [42] = test: Inhibition of EGFR L858R/[…] double mutant phosphorylation in human NCI-H1975 cells xenografted in SCID mouse at 10 mg/kg, po measured 6 hrs post dose; assay type: functional; conditions: NCI-H1975, 6 h
Mus musculus [43] = test: Inhibition of EGFR L858R/[…] double mutant phosphorylation in human NCI-H1975 cells xenografted in SCID mouse at 10 mg/kg, po measured 16 hrs post dose; assay type: functional; conditions: NCI-H1975, 16 h
Mus musculus [44] = test: Inhibition of EGFR L858R/[…] double mutant phosphorylation in human NCI-H1975 cells xenografted in SCID mouse at 10 mg/kg, po measured 24 hrs post dose; assay type: functional; conditions: NCI-H1975, 24 h
Mus musculus [45] = test: Inhibition of EGFR L858R/[…] double mutant phosphorylation in human NCI-H1975 cells xenografted in SCID mouse at 10 mg/kg, po measured 30 hrs post dose; assay type: functional; conditions: NCI-H1975, 30 h
NCI-H1975 [46] = test: Antitumor activity against human NCI-H1975 cells harboring EGFR L858R/[…] double mutant xenografted in SCID mouse assessed as tumor growth inhibition at 20 mg/kg/day, po qd for 7 days relative to control; assay type: functional; conditions: NCI-H1975, 168 h, read-out: TGI
A-431 [47] = test: Antitumor activity against human A431 cells xenografted in SCID mouse assessed as tumor growth inhibition at 20 mg/kg/day, po qd for 7 days relative to control; assay type: functional; conditions: A-431, 168 h, read-out: TGI

C=CC(=O)Nc1cc(Nc2nccc(-c3cn(C)c4ccccc34)n2)c(OC)cc1N(C)CCNC
Drug metabolism (Plasma [1]): metabolite_detected | logD [2]: 2.3 | solubility thermodynamic [3]: 14 µM (≈ 6.8 µg/mL) | IC50 [4]: > 33000 nM | IC50 [5]: 1600 nM | GI50 (NCI-H1975 [6]; Homo sapiens, NCI-H1975, 72 h): 19 nM | GI50 ([7]; Homo sapiens, PC-9, 72 h): 15 nM | GI50 ([8]; Homo sapiens, Calu-3, 72 h): 537 nM | fraction unbound [9]: 0.039 | fraction unbound [10]: 0.0105 | hepatocyte CLint [11]: 50 µL/min/1e6 cells | hepatocyte CLint [12]: < 3 µL/min/1e6 cells | fraction unbound [13]: 0.023 | Drug metabolism (Plasma [14]): metabolite_detected

C=CC(=O)Nc1cc(Nc2nccc(-c3cn(C)c4ccccc34)n2)c(OC)cc1N(C)CCN(C)C [OSIMERTINIB]
TGI (NCI-H1975 [15]): 120% | TGI (A-431 [16]): 65% | logD [2]: 3.4 | solubility thermodynamic [3]: 7 µM (≈ 3.5 µg/mL) | IC50 [5]: 2900 nM | GI50 (NCI-H1975 [6]): […] | GI50 [7]: 23 nM | GI50 [8]: 264 nM | Fu (Plasma [17]): 2.9% | fraction unbound [10]: 0.034 | hepatocyte CLint [11]: 27 µL/min/1e6 cells | hepatocyte CLint [12]: 3.4 µL/min/1e6 cells | half-life [18]: 2.02 h | Cmax [19]: 380 nM | TGI (NCI-H1975 [20]): 148% | TGI [21]: 267% | TGI (A-431 [22]): 102% | clearance (Rattus norvegicus [23]): 45 mL/min/kg | bioavailability [24]: 45% | fraction unbound [13]: 0.032 | TGI (NCI-H1975 [25]): 134% | TGI (A-431 [26]): 79% | IC50 (Insulin receptor [27]): 912 nM | Activity (Rattus norvegicus [28]): Non-toxic | Activity (Rattus norvegicus [29]): Non-toxic | Activity (Cavia porcellus): Non-toxic | Drug metabolism (Plasma [30]): metabolite_detected | Drug metabolism (Plasma [31]): metabolite_detected | Drug metabolism (Plasma [32]): metabolite_detected | Drug metabolism (Plasma [33]): metabolite_detected

C=CC(=O)Nc1cc(Nc2ncc(Cl)c(-c3cnn4ccccc34)n2)c(OC)cc1N(C)CCN(C)C
IC50 [5]: 6 nM | inhibition [34]: 97% | inhibition (Insulin receptor [35]): 99% | inhibition in vivo at 10 mg/kg (Mus musculus [36]): 30% | inhibition in vivo at 10 mg/kg (Mus musculus [37]): 83% | inhibition in vivo at 10 mg/kg (Mus musculus [38]): 60% | inhibition in vivo at 10 mg/kg (Mus musculus [39]): 38% | inhibition in vivo at 10 mg/kg (Mus musculus [40]): 10% | inhibition in vivo at 10 mg/kg (Mus musculus [41]): 89% | inhibition in vivo at 10 mg/kg (Mus musculus [42]): 100% | inhibition in vivo at 10 mg/kg (Mus musculus [43]): 94% | inhibition in vivo at 10 mg/kg (Mus musculus [44]): 93% | inhibition in vivo at 10 mg/kg (Mus musculus [45]): 80% | inhibition in vivo at 10 mg/kg/day (NCI-H1975 [20]): 130% | inhibition in vivo at 10 mg/kg/day ([21]; Homo sapiens, PC-9, 168 h, read-out: TGI): 243% | inhibition in vivo at 10 mg/kg/day (A-431 [22]): 35% | IC50 (Insulin receptor [27]): 9 nM

CN(C)C/C=C/C(=O)Nc1cc2c(Nc3ccc(F)c(Cl)c3)ncnc2cc1O[C@H]1CCOC1 [AFATINIB]
inhibition in vivo at […] (NCI-H1975 [15]; NCI-H1975, 168 h, read-out: TGI): 16% | inhibition in vivo at […] (A-431 [16]; A-431, 168 h, read-out: TGI): 84% | inhibition in vivo at 20 mg/kg/day (NCI-H1975 [46]): 74% | inhibition in vivo at 20 mg/kg/day (A-431 [47]): 158% | inhibition in vivo at 10 mg/kg/day (NCI-H1975 [20]): 25% | inhibition in vivo at 10 mg/kg/day (A-431 [22]): 131% | inhibition in vivo at 5 mg/kg/day (NCI-H1975 [25]; Mus musculus, NCI-H1975, 168 h, read-out: TGI): 23% | inhibition in vivo at 5 mg/kg/day (A-431 [26]; Mus musculus, A-431, 168 h, read-out: TGI): 84%
